Results from paper PMC2858402 (Chemical biology & drug design, 2009).

These molecules were tested against β-domain of DnaK (SBD), residues 393–507 (Escherichia coli, UniProt P0A6Y8) (assay: isothermal titration calorimetry).
Type: binding

Sequence of β-domain of DnaK (SBD), residues 393–507 (P0A6Y8 393-507): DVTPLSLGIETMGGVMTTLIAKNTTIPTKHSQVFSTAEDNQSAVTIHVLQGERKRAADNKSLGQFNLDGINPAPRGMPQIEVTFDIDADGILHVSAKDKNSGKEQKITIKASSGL

First: O=C(Nc1ccc2[nH]ccc2c1)c1cccs1 [D7, N-(1H-indol-5-yl)thiophene-2-carboxamide]
Second: O=C(Nc1ncc2ccccc2n1)c1cccs1 [D9, N-(quinazolin-2-yl)thiophene-2-carboxamide]
The Kd of the first is 3.3-fold higher: 4.9 µM for the first, 1.5 µM for the second. The second binds more tightly here.

`O=C(NCc1cccc2ccccc12)c1cccs1` [D5, N-(naphthalen-1-ylmethyl)thiophene-2-carboxamide] was tested, and the Kd was 1 µM.

These molecules were tested against Full-length DnaK (FL, flDnaK) (Escherichia coli, UniProt P0A6Y8) (assay: isothermal titration calorimetry).
Type: binding

Sequence of Full-length DnaK (FL, flDnaK) (P0A6Y8 2-638): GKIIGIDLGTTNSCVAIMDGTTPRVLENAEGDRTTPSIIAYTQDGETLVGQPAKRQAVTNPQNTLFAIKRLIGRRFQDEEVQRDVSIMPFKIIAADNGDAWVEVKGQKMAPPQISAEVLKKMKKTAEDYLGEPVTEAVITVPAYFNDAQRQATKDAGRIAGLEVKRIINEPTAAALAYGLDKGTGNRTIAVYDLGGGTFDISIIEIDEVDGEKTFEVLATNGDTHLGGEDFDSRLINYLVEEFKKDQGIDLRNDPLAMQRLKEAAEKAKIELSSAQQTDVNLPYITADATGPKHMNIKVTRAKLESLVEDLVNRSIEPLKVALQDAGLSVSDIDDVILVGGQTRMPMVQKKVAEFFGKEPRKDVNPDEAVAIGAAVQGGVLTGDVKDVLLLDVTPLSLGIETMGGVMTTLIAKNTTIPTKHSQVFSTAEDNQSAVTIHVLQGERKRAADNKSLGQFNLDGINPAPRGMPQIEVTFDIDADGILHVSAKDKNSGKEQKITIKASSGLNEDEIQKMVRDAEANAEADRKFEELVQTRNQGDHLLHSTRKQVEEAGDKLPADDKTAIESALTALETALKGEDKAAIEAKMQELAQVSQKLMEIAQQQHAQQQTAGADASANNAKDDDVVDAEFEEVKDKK

First: O=C(c1cccs1)N1CCN(CCO)CC1 [F10, (4-(2-hydroxyethyl)piperazin-1-yl)(thiophen-2-yl)methanone]
Second: O=C(NCc1ccccc1O)c1cccs1 [F8, N-(2-hydroxybenzyl)thiophene-2-carboxamide]
The Kd of the first is 7.3-fold higher: 16.7 µM for the first, 2.3 µM for the second.

First: O=C(Nc1ccc2[nH]ccc2c1)c1cccs1 [D7, N-(1H-indol-5-yl)thiophene-2-carboxamide]
Second: O=C(NCc1cccc2ccsc12)c1cccs1 [D10, N-(benzo[b]thiophen-7-ylmethyl)thiophene-2-carboxamide]
The Kd of the first is 63-fold higher: 12.7 µM for the first, 0.2 µM for the second. The second binds more tightly here.

Compared with `Nc1ncnc2c1ncn2[C@@H]1O[C@H](COP(=O)(O)OP(=O)(O)OP(=O)(O)O)[C@@H](O)[C@H]1O` [ATP], `O=C(NCc1ccc(Cl)c(Cl)c1)c1cccs1` [F6, N-(3,4-dichlorobenzyl)thiophene-2-carboxamide] is 730-fold higher in Kd: 0.01 µM for the first, 7.3 ± 6.4 µM for the second. The first binds more tightly here.

`O=C(NCc1cccc2ccccc12)c1cccs1` [D5, N-(naphthalen-1-ylmethyl)thiophene-2-carboxamide] and `O=C(NCc1c(Cl)cccc1Cl)c1cccs1` [F7, N-(2,6-dichlorobenzyl)thiophene-2-carboxamide] are within 1.5-fold of each other in Kd: 1.7 µM for the first, 1.5 µM for the second.

Work on `O=C(NCc1cc(Cl)cc(Cl)c1)c1cccs1` [F9, N-(3,5-dichlorobenzyl)thiophene-2-carboxamide] yielded a Kd of 2.8 µM.
